experiment: Solubility of fenofibric acid salts in water at 25° C.; assay type: physicochemical; details: not given
Method: Solubility Determination: Solubility values of fenofibric acid salts in water were determined at 25° C. The salts were weighed into glass vials and water was added. The suspensions were rotated from end to end for about 2 days in a 25° C. water bath. The pH of the suspensions was measured. The residual solid was then removed via filtration through a 0.45 μm PTFE membrane filter. The resulting saturated solution was diluted appropriately into the HPLC mobile phase, and analyzed by the HPLC assay described below (Table 3). The powder x-ray diffraction pattern of the collected residual solid was recorded at the end of experiment.

Molecule | solubility [µg/mL]
Tris | 5450

same assay, conditions: read-out: Solubility

Molecule | solubility [µg/mL]
C[N+](C)(C)CCO [Choline] | > 300000
CC(C)(Oc1ccc(C(=O)c2ccc(Cl)cc2)cc1)C(=O)O [Free acid, 2-[4-(4-chlorobenzoyl)phenoxy]-2-methyl-propanoic acid, reference compound] | 265
CCN(CC)CCOC(=O)c1ccc(N)cc1 [Procaine] | 7200

experiment: Intrinsic dissolution rate (IDR); assay type: physicochemical; details: pH 6.8, 50 mM sodium citrate buffer, 37° C.
Method: The intrinsic dissolution rate is the rate of dissolution of pharmaceutically acceptable ingredients when conditions such as surface area, agitation or stirring speed, pH and ionic strength of the dissolution medium are held constant.
Pellets of the salts were prepared by compressing ca. 100 mg of the compound in a stainless steel die under 1300 pounds force with a dwell time of one minute. The die containing the tablet was submerged in 400 mL of the dissolution medium at 37° C. The solution was stirred by a paddle at ˜60 rpm. At each time point, 3 mL of sample was withdrawn and filtered. After discarding the first half of the filtrate, the remainder was collected and assayed by HPLC method above. The total volume of the dissolution medium was kept at a constant by replenishing the lost volume at each data point with fresh buffer at 37 C.

Molecule | IDR [mg/min/cm^2]
CN(C)C(=N)N=C(N)N [Metformin] | 7.09
C[N+](C)(C)CCO [Choline] | 14.50
Tris | 0.67
NCCO [Ethanolamine] | 8.05
Calcium | 0.10
CC(C)(Oc1ccc(C(=O)c2ccc(Cl)cc2)cc1)C(=O)O [Free acid, 2-[4-(4-chlorobenzoyl)phenoxy]-2-methyl-propanoic acid, reference compound] | 0.30
CCN(CC)CCOC(=O)c1ccc(N)cc1 [Procaine] | 1.06
